# Assay results published in patent US20250154467A1, “CREATION OF VASCULARIZED BIOLOGICAL STRUCTURES” (The Board of Trustees of the Leland Stanford Junior …, priority 2022, published 2025).
# “Also recorded” adds a separate entry of the source. Like-named read-outs stand apart in the source and are kept apart here.
# What was measured:
# RUES-GLR hESCs = assay: Germ layer formation under different CHIR concentrations; assay type: cell-based, human; details: CHIR 4 uM added at day 0, day 6
# hESC-3R colony = assay: 3D cVO creation in 96-well plate with a range of CHIR; assay type: cell-based, human; details: 3D cVOs, day 14, CHIR 6.0-8.5 uM
# Method: For 3D cVO creation, two methods were used. In the first method, stencils with single 2 mm center holes were placed in 24-well plates with Softwell Easy Coat hydrogels with a custom stiffness of 16 […]) and hESC-3R cells were micropatterned as described above. In the second method, to increase throughput and eliminate using stencils, each well of a black 96-well plate ([…]-32EA, Sigma-Aldrich) was freshly coated with a central, 2 uL drop of Matrigel (1:400 dilution) and was then seeded with 125,000 hESC-3R cells. Cells were allowed to attach and grow for 2-4 days forming a single, homogenous, round colony in the center of each well. The same differentiation protocol for 2D cVOs was then used to create 3D cVOs from days 0-14, using a range of CHIR from 6.0-8.5 μM.
# hESC-3R micropatterns [1] = assay: cVO differentiation screening, 34 conditions, CM/EC/SMC total fluorescence area; assay type: cell-based, human
# Source text: Cardiac Vascularized Organoid (cVO) Differentiation. See FIG. 3C, FIG. 10H-I, and Table 1 for an overview of our thirty-four (34) cardiovascular (CV) differentiation screening conditions to produce cVOs. The Control groups utilized only CHIR, FGF2, and IWR. To begin, hPSCs suspended in single cells were transferred to Matrigel-coated non-micropatterned or micropatterned surfaces as described above and differentiated in RPMI-1640 media (61870, Thermo Fisher Scientific) supplemented with B27 without insulin (A1895601, Thermo Fisher Scientific) (RB-I). The CV differentiation was based on the baseline differentiation described previously to promote CM differentiation and contained several additional small molecules and growth factors to promote simultaneous endothelial and smooth muscle cell co-differentiation. On Day 0, for primarily mesoderm induction, basal medium was supplemented with 4 or 5 μM CHIR99021 (CHIR) (S2924, Selleck Chemicals) and 5 ng/ml FGF-2 (FGF2) (100-18B, PeproTech). On Day 3, for CM induction, 5 uM IWR-1 (IWR) (S7086, Selleck Chemicals) was added. On Days 5-16, to simultaneously induce endothelial cell vasculogenesis and angiogenesis along with the cardiomyocyte differentiation, we added combinations of 50 ng/ml VEGF-165 (VEGF) (Days 5, 7, 9, 11, 13) (100-20, PeproTech); 5 ng/ml FGF-2 (FGF2) (Days 7, 9, 11, 13) (100-18B, PeproTech); 10 uM SB431542 (SB) (Days 7, 9, or 11) ([…], Selleck Chemicals); 50 ng/ml Angiopoietin-2 (ANG2) (Days 5 and 7) (130-07, PeproTech); 50 ng/ml Angiopoietin-1 (ANG1) (Days 9 and 11) (130-06, PeproTech); and select components of the VascuLife® VEGF LifeFactors® Kit (Aghajanian et al., 2016) (LS-1020, Lifeline Cell Technology) (Days 5, 7, 9, 11, and 13) (5 ng/ml EGF, 15 ng/ml IGF-1, 50 μg/mL ascorbic acid, 0.75 U/mL heparin sulfate, […]). On Days 7-16, to simultaneously induce smooth muscle cell differentiation with cardiomyocyte and endothelial cell differentiation, we added 2.5 or 10 ng/ml PDGF-BB (PDGFBB) (Days 7, 9, 11, 13) (100-14B, PeproTech) and 0.5 or 2 ng/ml TGF-β1 (TGFβ) (Days 7, 9, 11, 13) (100-21C, PeproTech). To increase throughput, screening time-lapse microscopy was performed with the Cytation 5 Cell Imaging Multi-Mode Reader (BioTek). Five (5) forty-eight (48)-well plates (204 out of 240 wells) were imaged over the differentiation time-period. The plates contained a single 2 mm circular micropattern of undifferentiated hESC-3R cells in the center of each well subjected to thirty-four (34) differentiation conditions, with nominally 4-6 replicates per condition, imaged at six (6) timepoints (Days 3, 5, 8, 10, 12, and 16 (D3-D16)). After all raw images were acquired, image analysis was performed with Gen5 v3.05 software (BioTek). Images in each channel and each 4×4 array were stitched to create a single mosaic image; 4728 mosaics were created, and each mosaic image was downsized by 25%. Next, image processing of each mosaic was performed to reduce background independently in each channel. Finally, for each channel, thresholding was performed on fluorescence intensity along with minimum and maximum object size to calculate the total Phase, CFP, GFP, and mOrange total fluorescence area in each well for each condition at each timepoint. Each mosaic image was computationally masked by a circular “plug” to eliminate fluorescence artifact created by well edges. For each condition, values for replicate samples were summed, and the mean and standard deviation were calculated.
# hESC-3R micropatterns [2] = assay: CHIR concentrations and VEGF addition on CM and EC co-differentiation over 14 days; assay type: cell-based, human; details: day 14
# cVO EC formation = details: for time course of detrimental effect on EC formation (regression coefficients): multiple linear regression fit, 16 days; for effect on vascularization of cVOs: pathway inhibitors, summary; for EC location within cVO: day 16
# cVOs = assay: Beat rate with isoproterenol treatment, cVOs; assay type: cell-based, human; details: isoproterenol 0, 1, and 10 uM; n=16
# Source text: Cardiac Vascularized Organoid (cVO) Differentiation. See FIG. 3C, FIG. 10H-I, and Table 1 for an overview of our thirty-four (34) cardiovascular (CV) differentiation screening conditions to produce cVOs. The Control groups utilized only CHIR, FGF2, and IWR. To begin, hPSCs suspended in single cells were transferred to Matrigel-coated non-micropatterned or micropatterned surfaces as described above and differentiated in RPMI-1640 media (61870, Thermo Fisher Scientific) supplemented with B27 without insulin (A1895601, Thermo Fisher Scientific) (RB-I). The CV differentiation was based on the baseline differentiation described previously to promote CM differentiation and contained several additional small molecules and growth factors to promote simultaneous endothelial and smooth muscle cell co-differentiation. […] We assessed the contractility of Control and cVO groups in a similar manner as we have previously described. Contraction of beating CMs within the micropatterns was recorded with high-resolution motion capture tracking (75 fps) using the SI8000 Live Cell Motion Imaging System (Sony Corporation). […] Functional parameters were assessed from the averaged contraction-relaxation waveforms from 10 sec recordings, using the S[…] […] The software was used to detect motion vectors and quantify beating rate, contraction velocity, relaxation velocity, and contraction-relaxation peak interval of cVOs.
# [3] = tested on: Controls (baseline cardiomyocyte differentiation); assay: Beat rate with isoproterenol treatment, Controls; assay type: cell-based, human; details: isoproterenol 0, 1, and 10 uM; n=15
# Source text: Baseline Cardiomyocyte (CM) Differentiation. For baseline cardiomyocyte (CM) differentiation (Control group), hPSCs were transferred to Matrigel-coated non-micropatterned and micropatterned surfaces as described above and differentiated in RPMI-1640 media (61870, Thermo Fisher Scientific) supplemented with B27 without insulin (A1895601, Gibco/Thermo Fisher Scientific). Our baseline differentiation method was based on a small molecule-based monolayer method (Lian et al., 2012; Burridge et al., 2014). Briefly, on the first day (Day 0) of differentiation, basal medium was supplemented with 4, 5, or 6 μM CHIR99021 (CHIR) (S2924, Selleck Chemicals) and 5 ng/mL FGF-2 (FGF2) (100-18B, PeproTech). On Day 2, the medium was replaced with basal medium containing B27 without insulin. […] We assessed the contractility of Control and cVO groups in a similar manner as we have previously described. Contraction of beating CMs within the micropatterns was recorded with high-resolution motion capture tracking (75 fps) using the SI8000 Live Cell Motion Imaging System (Sony Corporation). […] Functional parameters were assessed from the averaged contraction-relaxation waveforms from 10 sec recordings, using the S[…] […] The software was used to detect motion vectors and quantify beating rate, contraction velocity, relaxation velocity, and contraction-relaxation peak interval of cVOs.
# [4] = CHIR 4 vs 5 uM for each condition, day 12
molecule,measurement,setting,value
"Cc1cnc(-c2cnc(NCCNc3ccc(C#N)cn3)nc2-c2ccc(Cl)cc2Cl)[nH]1 [CHIR, 6-[[2-[[4-(2,4-Dichlorophenyl)-5-(5-methyl-1H-imidazol-2-yl)-2-pyrimidinyl]amino]ethyl]amino]-3-pyridinecarbonitrile]",germ layer formation in micropatterned RUES-GLR hESCs,RUES-GLR hESCs,"central BRA+ mesodermal area was surrounded by a SOX17+ endodermal ring and no SOX2 ectodermal expression; also recorded: BRA+ mesodermal central area surrounded by a SOX17+ endodermal ring, with no SOX2 ectodermal expression"
same,CHIR concentration giving the most CMs and ECs,hESC-3R colony,7.0 µM
same,"CHIR concentration giving the most CMs, ECs, and SMCs","hESC-3R micropatterns [1]; 34 screening conditions, CHIR 4 uM vs 5 uM",5 µM
same,CHIR concentration giving the most CMs (GFP total fluorescence area),hESC-3R micropatterns [1]; [4],5 µM
same,CHIR concentration giving the most ECs (mOr total fluorescence area),hESC-3R micropatterns [1]; [4],5 µM
same,CHIR concentration giving the most SMCs (CFP total fluorescence area),hESC-3R micropatterns [1]; [4],5 µM
same,CHIR concentration giving the most CMs,"hESC-3R micropatterns [2]; CHIR+FGF2+IWR (Control), CHIR 3, 4, and 5 uM",5 µM
same,CHIR concentration giving the most CMs and ECs,hESC-3R micropatterns [2]; CHIR+FGF2+IWR+VEGF 50 ng/ml,5 µM
C[C@H](NC(=O)Cc1cc(F)cc(F)c1)C(=O)N[C@H](C(=O)OC(C)(C)C)c1ccccc1 [DAPT],difference in cVO EC formation between concentrations,cVO EC formation; DAPT 1 vs 10 uM,no significant (ns) difference
same,time course of detrimental effect on EC formation (regression coefficients),cVO EC formation,decays over time
same,effect on vascularization of cVOs,cVO EC formation,general disruptive effects on vascularization
"Cl.Cl.c1cc(-c2cnn3cc(-c4ccc(OCCN5CCCCC5)cc4)cnc23)ccn1 [Dorsomorphin, 6-[4-[2-(1-Piperidinyl)ethoxy]phenyl]-3-(4-pyridinyl)-pyrazolo[1,5-a]pyrimidine dihydrochloride]",difference in cVO EC formation between concentrations,cVO EC formation; Dorsomorphin 0.1 vs 1.0 uM,no significant (ns) difference
same,time course of detrimental effect on EC formation (regression coefficients),cVO EC formation,exponentially increases
same,effect on vascularization of cVOs,cVO EC formation,general disruptive effects on vascularization
CC(C)NCC(O)c1ccc(O)c(O)c1 (stereo not shown) [isoproterenol],Beat rate of cVOs,cVOs,significantly increased; also recorded: increases
same,Beat rate of Controls,[3],significantly increased; also recorded: increases
Angiostatin,EC location within cVO,cVO EC formation; Angiostatin 0.1 ug/mL,ECs congregated in the center area of starting micropatterns
same,EC location within cVO,cVO EC formation; Angiostatin 1.0 ug/mL,ECs congregated at the periphery of starting micropatterns
same,difference in cVO EC formation between concentrations,cVO EC formation; Angiostatin 0.1 vs 1.0 ug/mL,no significant (ns) difference
same,effect on vascularization of cVOs,cVO EC formation,general disruptive effects on vascularization
VEGF,"EC formation (mOr) compared to Control, FGF2 alone and SB alone","hESC-3R micropatterns [1]; VEGF alone, 50 ng/ml, day 12",most ECs
same,effect on CM formation (GFP),"hESC-3R micropatterns [1]; VEGF alone, 50 ng/ml, day 12",no statistical (ns) effect
